Test results as given in US20130123494A1, “COMPLEX COMPOUND AND OPTICAL RECORDING MEDIUM CONTAINING SAME” (KH NEOCHEM CO., LTD., priority 2010, published 2013).

Assays:
Assay type in all cases: physicochemical
[1] = Water resistance test of thin films; settings: for I^d/I^d0 (absorbance ratio at absorption maximum after/before water resistance test) / Δλmax (d) (change in absorption maximum wavelength): thin film immersed in water at 75° C. for 30 minutes; for Water resistance of thin film (in words): thin film in water at 75° C. for 30 minutes
Method: Similarly to the film-forming test, thin films of Complex Compounds (2), (3), (13), (19), and (20) were respectively obtained. Ultraviolet-visible absorption spectra of the thin films were measured using a spectrophotometer before and after the water resistance test in which the thin films were immersed in water at 75° C. for 30 minutes. […] Here, the absorption maximum wavelength after the water resistance test denotes the absorption maximum wavelength in the absorption spectrum after the water resistance test. […] Here, the water resistance test is a test under severe conditions, and a thin film having the ratio (I^d/I^d0) of 0.5 or greater has favorable water resistance.

[2] = Test of storage stability in solution; settings: 13 mg in 1 mL TFP, brown bottle, 25° C., 3 days; 1250-fold diluted for measurement
Method: Each of 13 mg of Complex Compounds (2) to (5), (7), (9) to (11), (13) to (21), (24), (26), (28), (30), (31), and (33) was dissolved in 1 mL of TFP, which was filtered with a filter made of TEFLON (registered trademark) (manufactured by Whatman, having a pore diameter of 0.20 μm), and solutions of Complex Compounds (2) to (5), (7), (9) to (11), (13) to (21), (24), (26), (28), (30), (31), and (33) were respectively obtained. Each of the obtained solutions was transferred to a brown bottle with a lid and stored at 25° C. for 3 days. Before and after the storage stability test, using a spectrophotometer, 1250-fold diluted solutions of Complex Compounds (2) to (5), (7), (9) to (11), (13) to (21), (24), (26), (28), (30), (31), and (33), respectively, were measured for their ultraviolet-visible absorption spectra. […] Here, the absorption maximum wavelength after the storage stability test is the absorption maximum wavelength in the absorption spectrum after the storage stability test.

[3] = Moisture- and heat-resistances test of thin films; settings: thin film, 80° C., relative humidity 80%, 100 hours
Method: Similarly to the film-forming test, thin films of Complex Compounds (2) to (5), (7), (9) to (11), (13) to (21), (24), (26), (28), (30), (31), and (33) were respectively obtained. Using a constant temperature and humidity chamber, KHWII-40HP, manufactured by Satake Chemical Equipment Mfg Ltd., the thin films were exposed in the atmosphere having a temperature of 80° C. and a relative humidity of 80% for 100 hours. Ultraviolet-visible absorption spectra of the thin films before and after the moisture- and heat-resistances test were measured using a spectrophotometer. […] Here, the absorption maximum wavelength after the moisture- and heat-resistances test denotes the absorption maximum wavelength in an absorption spectrum after the moisture- and heat-resistances test.

[4] = Lightfastness test of thin films; settings: thin film on glass plate, UV fluorescent lamps 15 W/m^2, 45° C., 10 hours
From the text: Thin films of Complex Compounds (2) to (5), (7), (9) to (11), (13) to (21), (24), (26), (28), (30), (31), and (33) were respectively obtained similarly to the film-forming test except that a glass plate (manufactured by Taiyu Kizai Co., Ltd.; 2 cm×2 cm; thickness: 2 mm) was used as the substrates instead of the plate made of polycarbonate resin. Using a dewpanel light control weather meter DPWL-5R, manufactured by Suga Test Instruments Co., Ltd., which was equipped with ultraviolet fluorescent lamps (SUGA-FS40, manufactured by Suga Test Instruments Co., Ltd., having a peak wavelength of 313 nm and an illuminance distribution of 282 nm to 373 nm), light was irradiated on the thin films with an amount of light of 15 W/m^2 at 45° C. for 10 hours. Ultraviolet-visible absorption spectra of the thin film before and after the lightfastness test were measured using a spectrophotometer.
Here, the absorption maximum wavelength after lightfastness test denotes an absorption maximum wavelength in the absorption spectrum after the lightfastness test.

| SMILES | I^d/I^d0 (absorbance ratio at absorption maximum after/before water resistance test) [1] | Δλmax (d) (change in absorption maximum wavelength) [1] [nm] | Water resistance of thin film (in words) [1] | I^c/I^c0 (absorbance ratio at absorption maximum after/before storage stability test) [2] | Δλmax(c) (change in absorption maximum wavelength) [2] [nm] | I^b/I^b0 (absorbance ratio at absorption maximum after/before moisture- and heat-resistances test) [3] | Δλmax(b) (change in absorption maximum wavelength) [3] [nm] | I^a/I^a0 (absorbance ratio at absorption maximum after/before lightfastness test) [4] |
| --- | --- | --- | --- | --- | --- | --- | --- | --- |
| Cc1c(/C=N/[N-]c2nnnn2-c2ccccc2)c([O-])n(CC(C)C)c(=O)c1C#N.Cc1c(/C=N/[N-]c2nnnn2-c2ccccc2)c([O-])n(CC(C)C)c(=O)c1C#N.Cc1c(/C=N/[N-]c2nnnn2-c2ccccc2)c([O-])n(CC(C)C)c(=O)c1C#N.Cc1c(/C=N/[N-]c2nnnn2-c2ccccc2)c([O-])n(CC(C)C)c(=O)c1C#N.Fc1ccc(-[n+]2ccc(-c3cc[n+](-c4ccc(F)cc4)cc3)cc2)cc1.[Co+3].[Co+3] [Complex Compound (20)] | 0.59 | 0.5 | superior water resistance | 1.00 | 0.5 | 1.00 | 0.5 | 0.86 |
| Cc1c(/C=N/[N-]c2nnnn2-c2ccccc2)c([O-])n(CC(C)C)c(=O)c1C#N.Cc1c(/C=N/[N-]c2nnnn2-c2ccccc2)c([O-])n(CC(C)C)c(=O)c1C#N.Cc1c(/C=N/[N-]c2nnnn2-c2ccccc2)c([O-])n(CC(C)C)c(=O)c1C#N.Cc1c(/C=N/[N-]c2nnnn2-c2ccccc2)c([O-])n(CC(C)C)c(=O)c1C#N.[Co+3].[Co+3].c1ccc(-[n+]2ccc(-c3cc[n+](-c4ccccc4)cc3)cc2)cc1 [Complex Compound (13)] | 0.59 | 0.5 | superior water resistance | 0.99 | 0 | 0.99 | 0 | 0.87 |
| CCCCn1c([O-])c(/C=N/[N-]c2nnnn2-c2ccccc2)c(C)c(C#N)c1=O.CCCCn1c([O-])c(/C=N/[N-]c2nnnn2-c2ccccc2)c(C)c(C#N)c1=O.CCCCn1c([O-])c(/C=N/[N-]c2nnnn2-c2ccccc2)c(C)c(C#N)c1=O.CCCCn1c([O-])c(/C=N/[N-]c2nnnn2-c2ccccc2)c(C)c(C#N)c1=O.Fc1cccc(-[n+]2ccc(-c3cc[n+](-c4cccc(F)c4)cc3)cc2)c1.[Co+3].[Co+3] [Complex Compound (2)] | 0.73 | 0.5 | superior water resistance | 1.00 | 0 | 0.97 | 0.5 | 0.92 |
| Cc1c(/C=N/[N-]c2nnnn2-c2ccccc2)c([O-])n(CC(C)C)c(=O)c1C#N.Cc1c(/C=N/[N-]c2nnnn2-c2ccccc2)c([O-])n(CC(C)C)c(=O)c1C#N.Cc1c(/C=N/[N-]c2nnnn2-c2ccccc2)c([O-])n(CC(C)C)c(=O)c1C#N.Cc1c(/C=N/[N-]c2nnnn2-c2ccccc2)c([O-])n(CC(C)C)c(=O)c1C#N.FC(F)(F)c1cccc(-[n+]2ccc(-c3cc[n+](-c4cccc(C(F)(F)F)c4)cc3)cc2)c1.[Co+3].[Co+3] [Complex Compound (19)] | 0.76 | 0 | superior water resistance | 0.99 | 0 | 0.99 | 0 | 0.85 |
| CCn1c([O-])c(/C=N/[N-]C(=O)c2ccc(C(F)(F)F)cc2)c(C)c(C#N)c1=O.CCn1c([O-])c(/C=N/[N-]C(=O)c2ccc(C(F)(F)F)cc2)c(C)c(C#N)c1=O.CCn1c([O-])c(/C=N/[N-]C(=O)c2ccc(C(F)(F)F)cc2)c(C)c(C#N)c1=O.CCn1c([O-])c(/C=N/[N-]C(=O)c2ccc(C(F)(F)F)cc2)c(C)c(C#N)c1=O.[Co+3].[Co+3].c1cc[n+]2c(c1)-c1cccc[n+]1CCC2 [Complex Compound (11)] | – | – | – | 1.00 | 0 | 1.00 | 0 | 0.97 |
